{
  "source": "patent US10046000B2",
  "about": "“Use of 2-methylene-19-nor-(20S)-1α,25-Dihydroxyvitamin D3 to treat and prevent secondary hyperparathyroidism in a subject having renal failure” (Wisconsin Alumni Research Foundation, priority 2012, dated 2018)",
  "key": {"bovine parathyroid cells": {"system": "bovine parathyroid cells", "details": "cited from earlier work; for suppression of PTH secretion compared with 1,25-(OH)2D3: cultured bovine parathyroid cells"}, "serum calcium": {"system": "serum calcium", "details": "rat, in vivo; cited from earlier work"}, "[1]": {"system": "rats with renal insufficiency", "details": "four times during eight days, cited from earlier work"}, "[2]": {"system": "MRL/MpJ-FAS^lpr (MRL/pr) mouse model", "details": "300 ng per day through the diet; cited from earlier work"}, "uremic rat model [3]": {"system": "uremic rat model", "assay": "Uremic rat model, intraperitoneal (ip) administration of 2MD", "assay_type": "in vivo", "description": "(§1) Nephrectomy Rat Model. Disease Induction. Weanling, male Sprague-Dawley rats were obtained from Harlan (Madison, Wis.). Following a 10-13 day acclimation period, the animals had two-thirds of one kidney removed. After a week, the other entire kidney was removed. The animals were then switched from a chow diet to a purified rodent diet (Suda et al., Purified Rodent Diet-Diet 11) containing 0.6% Ca and 0.9% phosphorus and fat soluble vitamins A, D, E and K. Water and diet were provided ad libitum.\n(§2) Animal Husbandry. Animals were housed in suspended, plastic shoe-box style cages with corn cob bedding (prior to surgery) or in stainless steel, wire-bottom cages (approximately one week after surgery). The animal rooms were maintained at a temperature of 68 to 72° F. and a relative humidity of 25 to 75%. The holding rooms were set to provide 12 hours of light per day.\n(§3) Treatment Groups. Approximately four weeks after the second surgery, animals were assigned to treatment groups (14-15 animals/group) so that each group had the same average PTH level.\n(§4) Dose Preparation (Vehicle Formulation). The negative control material was prepared by volumetrically measuring ethanol (5%) and Neobee oil, mixing and then placing in storage at 2 to 8° C.\nDose Preparation (2MD Formulation). 2MD formulations (DP001, Sigma Aldrich Fine Chemicals, Madison, Wis.) were prepared by first determining the concentration of an ethanol stock solution using UV spectrophotometry (extinction coefficient=42,000; λmax=252 nm). […]\nSerum Parathyroid Hormone (PTH) Levels. […] Four weeks after surgery and 4 and 8 weeks after treatment initiation, blood was collected from the tail artery and the concentration of bioactive serum PTH was measured using the rat BioActive Intact PTH ELISA Kit from Immutopics, Inc. (San Clemente, Calif.).\nSerum Calcium Analysis. […] The level of calcium was determined by diluting the serum into 0.1% lanthum chloride and measuring the absorbance on an atomic absorption spectrophotometer (Perkin Elmer Model 3110, Shelton, Conn.). […]"}, "uremic rat model [4]": {"system": "uremic rat model", "assay_type": "in vivo", "details": "for effect on serum phosphorus levels: nephrectomized rats", "description": "as §1, §2, §3, §4\nDose Preparation (2MD Formulation). 2MD formulations (DP001, Sigma Aldrich Fine Chemicals, Madison, Wis.) were prepared by first determining the concentration of an ethanol stock solution using UV spectrophotometry (extinction coefficient=42,000; λmax=252 nm). The solutions were then volumetrically added to Neobee oil so that there was no more than 5% ethanol in the final solution. If necessary, additional ethanol was added to bring the final ethanol amount to 5%. The solution was mixed and stored at 2 to 8° C.\nDose Administration Method. Both vehicle and 2MD were administered orally to the back of the tongue at 0.5 ml/kg body weight once daily for 8 weeks, or intraperitoneally three times per week for 4 weeks.\nSerum Parathyroid Hormone (PTH) Levels. By “serum PTH levels” we mean the amount of PTH released by the parathyroid gland. PTH is the most important regulator of the body's calcium and phosphorus levels, and is controlled by the level of calcium in the blood. Low blood calcium levels cause increased PTH to be released, while high blood calcium levels inhibit PTH release. Normal values are 10-55 picograms per milliliter ([…]). Four weeks after surgery and 4 and 8 weeks after treatment initiation, blood was collected from the tail artery and the concentration of bioactive serum PTH was measured using the rat BioActive Intact PTH ELISA Kit from Immutopics, Inc. (San Clemente, Calif.).\nSerum Calcium Analysis. Four weeks following surgery and 4 and 8 weeks after treatment started, blood was collected from the tail artery of each experimental animal. The blood was allowed to coagulate at room temperature and then centrifuged at 3000×g for 15 minutes. The serum was transferred to a polypropylene tube and stored frozen at −20° C. The level of calcium was determined by diluting the serum into 0.1% lanthum chloride and measuring the absorbance on an atomic absorption spectrophotometer (Perkin Elmer Model 3110, Shelton, Conn.).\nPhosphorus Assay. Four weeks after surgery and 8 weeks after treatment started, blood was collected from the tail artery of each experimental animal. The blood was allowed to coagulate at room temperature and then centrifuged at 3000×g for 15 minutes. The serum was transferred to a polypropylene tube and stored frozen at −20° C. The level of phosphorus was determined using a clinical analyzer (Pentra 400, Horiba ABX Diagnostics—France; UV method using phosphomolybdate).\nCreatinine Assay. Measuring serum creatinine levels is a useful and inexpensive method of evaluating renal dysfunction. Creatinine is a non-protein waste product of phosphocreatinine metabolism by skeletal muscle tissue. Creatinine production is continuous and is proportional to muscle mass. […]"}, "postmenopausal women": {"system": "postmenopausal women", "assay": "Phase 1B trial, oral administration of 2MD to postmenopausal women", "assay_type": "in vivo, human", "details": "for reduction of serum PTH levels: oral"}, "[5]": {"system": "bone calcium mobilization", "details": "in vivo; cited from earlier work"}, "[6]": {"system": "intestinal calcium transport", "details": "in vivo; cited from earlier work"}, "PTH mRNA": {"system": "PTH mRNA", "details": "in vivo; cited from earlier work"}, "uremic rats": {"system": "uremic rats", "details": "cited from earlier work"}, "uremic dogs": {"system": "uremic dogs", "details": "cited from earlier work"}},
  "note": "Like-named read-outs stand apart in the source and are kept apart here.",
  "data": [
    {"smiles": "C=C1/C(=C\\C=C2/CCC[C@]3(C)C([C@H](C)CC#CC(C)(C)O)=CC[C@@H]23)C[C@@H](O)C[C@@H]1O", "note": "[1,25-(OH)2-16-ene-23-yne-D3]", "values": [
      {"measurement": "suppression of PTH secretion compared with 1,25-(OH)2D3", "setting": "bovine parathyroid cells", "value": "nearly as effective as 1,25-(OH)2D3"}
    ]},
    {"smiles": "C=C1C(=CC=C2CCCC3(C)C2CCC3C(C)CCCCCC(C)(C)O)CC(O)CC1O", "note": "(stereo not drawn) [1,25-(OH)2-24-dihomo-D3]", "values": [
      {"measurement": "suppression of PTH secretion compared with 1,25-(OH)2D3", "setting": "bovine parathyroid cells", "value": "nearly as effective as 1,25-(OH)2D3"}
    ]},
    {"smiles": "C=C1C(=CC=C2CCCC3(C)C2CCC3C(C)C=CCCCCC(C)(C)O)CC(O)CC1O", "note": "(stereo not drawn) [1,25-(OH)2-24-trihomo-22-ene-D3]", "values": [
      {"measurement": "suppression of PTH secretion compared with 1,25-(OH)2D3", "setting": "bovine parathyroid cells", "value": "nearly as effective as 1,25-(OH)2D3"}
    ]},
    {"smiles": "C=C1/C(=C\\C=C2/CCC[C@]3(C)[C@@H]([C@H](C)CCCC(C)(C)O)CC[C@@H]23)C[C@@H](O)C[C@@H]1O", "note": "[1,25-(OH)2D3, 1α,25-dihydroxyvitamin D3]", "values": [
      {"measurement": "dose that increased serum calcium to the same magnitude", "setting": "serum calcium", "value": 10, "unit": "ng/rat/10 days"},
      {"measurement": "effect on serum calcium and phosphorus", "setting": "[1]; 8 ng dose", "value": "induced hypercalcemia and hyperphosphatemia"},
      {"measurement": "effect on pre-pro-PTH mRNA and PTH secretion", "setting": "[1]; 2, 4 and 8 ng", "value": "suppressed pre-pro-PTH mRNA and PTH secretion"},
      {"measurement": "dose at which the decrease of pre-pro-PTH mRNA and PTH secretion was statistically significant", "setting": "[1]", "value": 8, "unit": "ng"},
      {"measurement": "hypercalcemia", "setting": "[2]", "value": "severe hypercalcemia always accompanied this treatment"},
      {"measurement": "proteinuria", "setting": "[2]", "value": "completely prevents proteinuria"}
    ]},
    {"smiles": "C=C1[C@H](O)CC(=C/C=C2\\CCC[C@@]3(C)C2CCC3[C@@H](C)CCCC(C)(C)O)C[C@H]1O", "note": "(stereo partly drawn) [2MD, 2-methylene-19-nor-(20S)-1α,25-dihydroxyvitamin D3]", "values": [
      {"measurement": "dose at which serum calcium levels were raised", "setting": "uremic rat model [3]; ip three times per week, FIG. 3", "value": 10, "unit": "ng/kg bw"},
      {"measurement": "effect on serum PTH", "setting": "uremic rat model [3]; ip, 5 ng/kg bw three times per week, FIG. 2", "value": "prevented increases in serum PTH"},
      {"measurement": "effect on circulating PTH levels", "setting": "uremic rat model [3]; ip, 10 ng/kg bw three times per week, FIG. 2", "value": "suppresses circulating PTH levels"},
      {"measurement": "doses at which clinically significant serum calcium increases are observed", "setting": "uremic rat model [4]; male, Sprague-Dawley, rat, in vivo, po, 8 weeks", "value": 5, "unit": "ng/kg bw"},
      {"measurement": "effect on serum PTH levels", "setting": "uremic rat model [4]; oral, daily doses of 1-5 ng/kg bw, FIG. 5", "value": "prevented an increase or effected a reduction in serum PTH levels"},
      {"measurement": "serum creatinine levels compared to Vehicle control animals", "setting": "uremic rat model [4]; oral, daily doses of 1-5 ng/kg bw, FIG. 11", "value": "resulted in lower serum creatinine levels"},
      {"measurement": "effect on serum phosphorus levels", "setting": "uremic rat model [4]; oral, daily doses of 1-5 ng/kg bw, FIG. 9", "value": "reduced serum phosphorus levels"},
      {"measurement": "serum calcium levels", "setting": "postmenopausal women; 400 ng per day", "value": "maintaining serum calcium levels within the physiologically normal range"},
      {"measurement": "reduction in serum PTH levels", "setting": "postmenopausal women; 400 ng per day, FIG. 13", "value": "> 60", "unit": "%"},
      {"measurement": "reduction of serum PTH levels", "setting": "postmenopausal women; 110 ng once daily for 28 days", "value": 21, "unit": "%"},
      {"measurement": "reduction of serum PTH levels", "setting": "postmenopausal women; 440 ng once daily for 28 days", "value": 67, "unit": "%"},
      {"measurement": "bone calcium mobilization activity", "setting": "[5]", "value": "10-100 times that of 1α,25-(OH)2D3"},
      {"measurement": "intestinal calcium transport activity", "setting": "[6]", "value": "modest increase in intestinal calcium transport activity"}
    ]},
    {"smiles": "C=C1/C(=C\\C=C2/CCC[C@]3(C)[C@@H]([C@H](C)OCCC(C)(C)O)CC[C@@H]23)C[C@@H](O)C[C@@H]1O", "note": "[22-oxacalcitriol]", "values": [
      {"measurement": "suppression of PTH secretion compared with 1,25-(OH)2D3", "setting": "bovine parathyroid cells", "value": "nearly as effective as 1,25-(OH)2D3"},
      {"measurement": "suppression of PTH mRNA", "setting": "PTH mRNA", "value": "could suppress PTH mRNA"},
      {"measurement": "serum PTH", "setting": "uremic rats", "value": "suppress serum PTH"},
      {"measurement": "serum PTH", "setting": "uremic dogs", "value": "suppress serum PTH"}
    ]},
    {"smiles": "C[C@H](/C=C/[C@H](C)C(C)(C)O)[C@H]1CC[C@H]2/C(=C/C=C3C[C@@H](O)C[C@H](O)C3)CCC[C@]12C", "note": "[Zemplar®, 19-nor-1α,25-dihydroxy-ergocalciferol]", "values": [
      {"measurement": "serum creatinine levels compared to Vehicle control animals", "setting": "uremic rat model [4]; oral Zemplar", "value": "lowered serum creatinine levels compared to Vehicle control animals, however, only at dose levels that significantly increased serum calcium"},
      {"measurement": "effect on serum phosphorus levels", "setting": "uremic rat model [4]; oral Zemplar", "value": "did not reduce serum phosphorus levels"},
      {"measurement": "duration of the effect on serum PTH", "setting": "uremic rat model [4]; oral daily treatment for up to 8 weeks", "value": "the therapeutic effect was lost as the disease progressed"},
      {"measurement": "effect on serum PTH levels", "setting": "uremic rat model [4]; oral, daily doses of 30-300 ng/kg bw, FIG. 6", "value": "prevented an increase in serum PTH levels"},
      {"measurement": "suppression on PTH release", "setting": "bovine parathyroid cells; 10^−7M", "value": 52, "unit": "%"},
      {"measurement": "dose that increased serum calcium to the same magnitude", "setting": "serum calcium", "value": 100, "unit": "ng/rat/10 days"},
      {"measurement": "changes in serum ionized calcium or serum phosphorus", "setting": "[1]; 8, 25 and 75 ng", "value": "none of the doses of 19-nor-1,25-(OH)2D2 produced statistically significant changes"}
    ]}
  ]
}
